Source: publication PMC8179336, “Impact of sphingosine and acetylsphingosines on the aggregation and toxicity of metal-free and metal-treated amyloid-β” (Chemical Science, 2020)

Biological target: T1, amyloid-β (Aβ40) (Homo sapiens, UniProt P05067)
T1 construct: gene APP; Aβ40
Experiment: ITC and 2D 1H-15N SOFAST-HMQC NMR (below and above the CAC)
Assay type: binding

T1 sequence (P05067 672-711 limits assumed): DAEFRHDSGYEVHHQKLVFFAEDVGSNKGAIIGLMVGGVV

Row | SMILES | ITC and 2D 1H-15N SOFAST-HMQC NMR (below and above the CAC)
1 | CCCCCCCCCCCCC/C=C/[C@@H](O)[C@@H](N)CO [SP, (2S,3R)-2-aminooctadec-4-trans-ene-1,3-diol] | For the association of SP with Aβ, an endothermic isotherm was recorded with negative Gibbs free energy change
2 | CCCCCCCCCCCCC/C=C/[C@@H](O)[C@H](CO)NC(C)=O [N-Ac-SP, (2S,3R,4E)-2-(acetylamino)-4-octadecene-1,3-diol] | Interactions between the two acetylsphingosines and Aβ exhibited spontaneous complexation showing an endothermic process
3 | CCCCCCCCCCCCC/C=C/[C@H](OC(C)=O)[C@@H](N)CO [3-O-Ac-SP, (2S,3S,E)-2-amino-1-hydroxyoctadec-4-en-3-yl acetate] | These observations indicate weak and nonspecific interactions of both N-Ac-SP and 3-O-Ac-SP towards Aβ.
